Data taken from US20030215462A1, “Use of UGT inhibitors to increase bioavailability” (priority 2001, published 2003).
Values joined by “and” are separate entries in the source; they are usually repeats but may differ in a detail not shown here. Equal values may be shown once.

Assays:
Assay type in all cases: biochemical
[1] = test system: T1, UGT enzymes of human liver microsomes; experiment: Inhibition of 7-HFC glucuronidation in human liver microsomes; details: for % of control metabolism (SD, n = 3), 7-HFC glucuronidation: 7-HFC 50 μM, human liver microsomes 100 μg/ml, 15 min
T1 construct: percentage of control metabolism, 7-HFC glucuronidation; percentage of control metabolism, 7-HFC glucuronidation

[2] = target: T2, UGT enzymes of human liver microsomes (Homo sapiens, UniProt P16662); experiment: Inhibition of zidovudine glucuronidation in human liver microsomes; details: liver lot 062101
T2 construct: residual metabolism (percentage of control), zidovudine glucuronidation; other: liver lot 062101; residual metabolism (percentage of control), zidovudine glucuronidation; residual metabolism (percentage of control)
T2 sequence (P16662 1-529): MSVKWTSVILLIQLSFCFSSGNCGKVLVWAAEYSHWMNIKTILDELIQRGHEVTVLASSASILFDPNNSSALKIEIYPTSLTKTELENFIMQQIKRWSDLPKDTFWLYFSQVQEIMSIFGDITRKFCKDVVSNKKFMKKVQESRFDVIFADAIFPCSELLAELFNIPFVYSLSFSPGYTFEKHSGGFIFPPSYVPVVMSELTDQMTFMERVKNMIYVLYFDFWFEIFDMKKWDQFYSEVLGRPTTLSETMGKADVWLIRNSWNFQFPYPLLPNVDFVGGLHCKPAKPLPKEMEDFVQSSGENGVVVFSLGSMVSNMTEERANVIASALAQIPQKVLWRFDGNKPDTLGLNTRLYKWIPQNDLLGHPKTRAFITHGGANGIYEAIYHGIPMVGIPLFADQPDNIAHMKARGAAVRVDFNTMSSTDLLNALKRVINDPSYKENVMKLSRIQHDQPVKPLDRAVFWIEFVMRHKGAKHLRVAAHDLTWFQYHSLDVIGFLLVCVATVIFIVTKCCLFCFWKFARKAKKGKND
Protocol: Compounds were eluted using a binary solvent gradient system where solvent A was dilute phosphoric acid (pH 3) and solvent B was acetonitrile.
Standardized incubations utilized 500 μM zidovudine substrate, 1 mg/ml microsomal protein, 5 mM UDPGA and a 30 min incubation time. […] Int.

[3] = test system: UGT enzymes of human liver microsomes; experiment: Inhibition of raloxifene glucuronidation (G1, G2) in human liver microsomes; details: for % of control metabolism (SD, n = 3), raloxifene glucuronide G1 / % of control metabolism (SD, n = 3), raloxifene glucuronide G2: human liver microsomes 250 μg/ml, 15 min
Description: Compounds were eluted using a binary solvent gradient system. […] Solvent B was methanol. […] Detection was at 280 nm.

[4] = inhibitor 25 μM, raloxifene 50 μM
[5] = inhibitor 50 μM, raloxifene 50 μM
[6] = inhibitor 100 μM, raloxifene 50 μM
[7] = inhibitor 500 μM, raloxifene 50 μM
[8] = liver lot 032101, inhibitor 50 μM
[9] = liver lot 062101, inhibitor 50 μM
[10] = liver lot 083000, inhibitor 50 μM
[11] = raloxifene 50 μM, inhibitor 25 μM
[12] = raloxifene 50 μM, inhibitor 50 μM
[13] = raloxifene 50 μM, inhibitor 100 μM
[14] = inhibitor 10 μM, raloxifene 50 μM
[15] = raloxifene 50 μM, inhibitor 10 μM

O=C(O)c1cc(-c2ccc(F)cc2F)ccc1O [Diflunisal, reference compound]
percentage of control metabolism, 7-HFC glucuronidation ([1]; inhibitor 100 μM): 77 (2) % | % of control metabolism (SD, n = 3), 7-HFC glucuronidation ([1]; inhibitor 100 μM): 77 (2) % | percentage of control metabolism, 7-HFC glucuronidation ([1]; inhibitor 200 μM): 65 (3) % | % of control metabolism (SD, n = 3), 7-HFC glucuronidation ([1]; inhibitor 200 μM): 65 (3) % | percentage of control metabolism, 7-HFC glucuronidation ([1]; inhibitor 500 μM): 37 (1) % and 38 (0) % | % of control metabolism (SD, n = 3), 7-HFC glucuronidation ([1]; inhibitor 500 μM): 37 (1), % and 38 (0) % | residual metabolism (percentage of control), zidovudine glucuronidation ([2]; inhibitor 500 μM): 74 (2) % | residual metabolism (percentage of control), zidovudine glucuronidation ([2]; inhibitor 1000 μM): 43 (2) % | % of control metabolism (SD, n = 3), raloxifene glucuronide G1 [3, 4]: 63 (3) % | % of control metabolism (SD, n = 3), raloxifene glucuronide G1 [3, 5]: 43 (1) % | % of control metabolism (SD, n = 3), raloxifene glucuronide G1 [3, 6]: 30 (4) % | % of control metabolism (SD, n = 3), raloxifene glucuronide G1 [3, 7]: 6 (1) % | % of control metabolism (SD, n = 3), raloxifene glucuronide G2 [3, 4]: 66 (1) % | % of control metabolism (SD, n = 3), raloxifene glucuronide G2 [3, 5]: 45 (2) % | % of control metabolism (SD, n = 3), raloxifene glucuronide G2 [3, 6]: 34 (1) % | % of control metabolism (SD, n = 3), raloxifene glucuronide G2 [3, 7]: 7 (1) % | % of control metabolism, raloxifene G1 [3, 8]: 52 (1) % | % of control metabolism, raloxifene G2 [3, 8]: 54 (0) % | % of control metabolism, raloxifene G1 [3, 9]: 67 (2) % | % of control metabolism, raloxifene G2 [3, 9]: 57 (2) % | % of control metabolism, raloxifene G1 [3, 10]: 43 (1) % | % of control metabolism, raloxifene G2 [3, 10]: 45 (2) % | % of control metabolism, raloxifene G1 [3, 11]: 63 (3) % | % of control metabolism, raloxifene G2 [3, 11]: 66 (1) % | % of control metabolism, raloxifene G1 [3, 12]: 43 (1) % | % of control metabolism, raloxifene G2 [3, 12]: 45 (2) % | % of control metabolism, raloxifene G1 [3, 13]: 30 (4) % | % of control metabolism, raloxifene G2 [3, 13]: 34 (1) %

O=C(O[C@@H]1Cc2c(O)cc(O)cc2O[C@@H]1c1ccc(O)c(O)c1)c1cc(O)c(O)c(O)c1 [Epicatechin gallate]
percentage of control metabolism, 7-HFC glucuronidation ([1]; inhibitor 100 μM): 67 (1) % | % of control metabolism (SD, n = 3), 7-HFC glucuronidation ([1]; inhibitor 100 μM): 67 (1) % | percentage of control metabolism, 7-HFC glucuronidation ([1]; inhibitor 200 μM): 55 (3) % | % of control metabolism (SD, n = 3), 7-HFC glucuronidation ([1]; inhibitor 200 μM): 55 (3) % | percentage of control metabolism, 7-HFC glucuronidation ([1]; inhibitor 500 μM): 10 (1) % | % of control metabolism (SD, n = 3), 7-HFC glucuronidation ([1]; inhibitor 500 μM): 10 (1) % | residual metabolism (percentage of control), zidovudine glucuronidation ([2]; inhibitor 50 μM): 80 (1) % | residual metabolism (percentage of control), zidovudine glucuronidation ([2]; inhibitor 100 μM): 67 (1) % | residual metabolism (percentage of control), zidovudine glucuronidation ([2]; inhibitor 200 μM): 60 (2) % | residual metabolism (percentage of control), zidovudine glucuronidation ([2]; inhibitor 500 μM): 28 (1) % | % of control metabolism (SD, n = 3), raloxifene glucuronide G1 [3, 14]: 77 (4) % | % of control metabolism (SD, n = 3), raloxifene glucuronide G1 [3, 4]: 48 (4) % | % of control metabolism (SD, n = 3), raloxifene glucuronide G1 [3, 5]: 37 (3) % | % of control metabolism (SD, n = 3), raloxifene glucuronide G1 [3, 6]: 20 (0) % | % of control metabolism (SD, n = 3), raloxifene glucuronide G1 [3, 7]: 0 (0) % | % of control metabolism (SD, n = 3), raloxifene glucuronide G2 [3, 14]: 73 (4) % | % of control metabolism (SD, n = 3), raloxifene glucuronide G2 [3, 4]: 55 (5) % | % of control metabolism (SD, n = 3), raloxifene glucuronide G2 [3, 5]: 43 (4) % | % of control metabolism (SD, n = 3), raloxifene glucuronide G2 [3, 6]: 24 (2) % | % of control metabolism (SD, n = 3), raloxifene glucuronide G2 [3, 7]: 0 (0) % | % of control metabolism, raloxifene G1 [3, 8]: 47 (4) % | % of control metabolism, raloxifene G2 [3, 8]: 45 (2) % | % of control metabolism, raloxifene G1 [3, 9]: 63 (4) % | % of control metabolism, raloxifene G2 [3, 9]: 37 (2) % | % of control metabolism, raloxifene G1 [3, 10]: 37 (3) % | % of control metabolism, raloxifene G2 [3, 10]: 43 (4) % | % of control metabolism, raloxifene G1 [3, 15]: 77 (4) % | % of control metabolism, raloxifene G2 [3, 15]: 73 (4) % | % of control metabolism, raloxifene G1 [3, 11]: 48 (4) % | % of control metabolism, raloxifene G2 [3, 11]: 55 (5) % | % of control metabolism, raloxifene G1 [3, 12]: 37 (3) % | % of control metabolism, raloxifene G2 [3, 12]: 43 (4) % | % of control metabolism, raloxifene G1 [3, 13]: 20 (0) % | % of control metabolism, raloxifene G2 [3, 13]: 24 (2) %

CC(CCc1ccccc1)NCC(O)c1ccc(O)c(C(N)=O)c1 (stereo not shown) [Labetalol, labetalol]
% of control metabolism (SD, n = 3), 7-HFC glucuronidation ([1]; inhibitor 500 μM): 95 (2) % | % of control metabolism (SD, n = 3), raloxifene glucuronide G1 [3, 7]: 104 (11) % | % of control metabolism (SD, n = 3), raloxifene glucuronide G2 [3, 7]: 102 (4) %

CCCOC(=O)c1cc(O)c(O)c(O)c1 [Propyl gallate]
% of control metabolism (SD, n = 3), 7-HFC glucuronidation ([1]; inhibitor 200 μM): 71 (1) % | % of control metabolism (SD, n = 3), 7-HFC glucuronidation ([1]; inhibitor 500 μM): 63 (0), % and 59 (1) % | residual metabolism (percentage of control), zidovudine glucuronidation ([2]; inhibitor 500 μM): 77 (2) % | % of control metabolism (SD, n = 3), raloxifene glucuronide G1 [3, 4]: 58 (4) % | % of control metabolism (SD, n = 3), raloxifene glucuronide G1 [3, 5]: 45 (6) % | % of control metabolism (SD, n = 3), raloxifene glucuronide G1 [3, 6]: 48 (2) % | % of control metabolism (SD, n = 3), raloxifene glucuronide G1 [3, 7]: 21 (1) % | % of control metabolism (SD, n = 3), raloxifene glucuronide G2 [3, 4]: 60 (4) % | % of control metabolism (SD, n = 3), raloxifene glucuronide G2 [3, 5]: 48 (6) % | % of control metabolism (SD, n = 3), raloxifene glucuronide G2 [3, 6]: 52 (3) % | % of control metabolism (SD, n = 3), raloxifene glucuronide G2 [3, 7]: 33 (2) % | % of control metabolism, raloxifene G1 [3, 11]: 58 (4) % | % of control metabolism, raloxifene G2 [3, 11]: 60 (4) % | % of control metabolism, raloxifene G1 [3, 12]: 45 (6) % | % of control metabolism, raloxifene G2 [3, 12]: 48 (6) % | % of control metabolism, raloxifene G1 [3, 13]: 48 (2) % | % of control metabolism, raloxifene G2 [3, 13]: 52 (3) %
